Test results: patent publication US20230099344A1, “COMPOUNDS AND METHODS FOR THE TARGETED DEGRADATION OF IRAK-4” (Arvinas Operations, Inc., priority 2021, published 2023)

How the values were obtained:
Format in all cases: cell-based
IL6 [1] = experiment: LPS stimulated IL6 inhibition assay in PBMC; conditions: Homo sapiens, PBMC, 24 h, human PBMCs, LPS stimulation, compound overnight, IL6 by MSD after 24 hrs; for Dmax: read-out: LPS Stim IL6 inhibition Dmax; for IC50: read-out: LPS stim IL6 inhibition IC50
Summary of the method: (§1)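 Seed human PBMC, 2.0×10^6 cells/mL → compound overnight → stimulant (IL-1β, LPS or R848) at per-donor EC50 → 24 hrs → media to MSD for IL6/IL8.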

IL6 [2] = experiment: R848 stimulated IL6 inhibition assay in PBMC; conditions: PBMC, human PBMCs, R848 stimulation, compound overnight, IL6 by MSD after 24 hrs; for Dmax: Homo sapiens, 24 h, read-out: R848 stim IL6 inhibition Dmax; for IC50: read-out: R848 stim IL6 inhibition IC50
Summary of the method: as §1

IRAK-4 = target: T1, IRAK-4 (Homo sapiens, UniProt Q9NWZ3); experiment: IRAK-4 ELISA, PBMC degradation; parameters: endogenous in cells; host or cells: PBMC; conditions: treated overnight
T1 sequence (Q9NWZ3 1-460): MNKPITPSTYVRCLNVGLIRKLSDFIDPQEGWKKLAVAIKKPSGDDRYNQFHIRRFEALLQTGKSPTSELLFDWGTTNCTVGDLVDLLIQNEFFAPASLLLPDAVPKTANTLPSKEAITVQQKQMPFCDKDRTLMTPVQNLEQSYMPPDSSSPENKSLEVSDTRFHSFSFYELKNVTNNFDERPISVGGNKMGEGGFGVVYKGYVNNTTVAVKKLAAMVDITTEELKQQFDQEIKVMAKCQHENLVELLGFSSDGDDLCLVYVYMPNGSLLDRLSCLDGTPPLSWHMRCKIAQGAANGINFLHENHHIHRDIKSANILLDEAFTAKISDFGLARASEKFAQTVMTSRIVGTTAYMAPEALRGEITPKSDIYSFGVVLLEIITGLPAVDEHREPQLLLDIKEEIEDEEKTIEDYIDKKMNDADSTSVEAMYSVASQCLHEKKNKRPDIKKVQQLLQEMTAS
Summary of the method: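 ELISA quantification of cellular IRAK-4 after compound treatment overnight; PBMC were plated at 2×10^6/ml, OCI-Ly10 at 1×10^6/ml.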

| SMILES | IC50 (IL6 [1]) [nM] | IC50 (IL6 [2]) [nM] | DC50 (IRAK-4) [nM] | Dmax (IRAK-4) [%] | PBMC DC90 (IRAK-4) | Dmax (IL6 [1]) [%] | Dmax (IL6 [2]) [%] |
| --- | --- | --- | --- | --- | --- | --- | --- |
| O=C1CC[C@@H](N2C(=O)c3ccc(N4CC(F)(CN5CCC(n6cc7cc(NC(=O)c8cnn9cccnc89)c(OCC8CC8)cc7n6)CC5)C4)cc3C2=O)C(=O)N1 [Example 253] | 10 to 50 | 10 to 50 | 1 to 5 | ≥ 90 | B (B represents a DC90 value ≥10.0 nM and <25.0 nM) | < 70 | ≥ 90 |
| O=C1CC[C@H](N2C(=O)c3ccc(N4CC(F)(CN5CCC(n6cc7cc(NC(=O)c8cnn9cccnc89)c(OCC8CC8)cc7n6)CC5)C4)cc3C2=O)C(=O)N1 [Example 254] | 50 to 100 | 10 to 50 | 1 to 5 | ≥ 90 | A (A represents a DC90 value <10.0 nM) | < 70 | ≥ 90 |
| O=C1CCC(N2C(=O)c3ccc(N4CCC5(CC4)CC(CN4CCC(n6cc7cc(NC(=O)c8cnn9cccnc89)c(OCC8CC8)cc7n6)CC4)C5)cc3C2=O)C(=O)N1 (stereo not drawn) [Example 261] | 10 to 50 | 50 to 100 | 1 to 5 | ≥ 90 | A (A represents a DC90 value <10.0 nM) | 80 to 90 | 80 to 90 |
| O=C1CCC(N2C(=O)c3ccc(N4CC(F)(CN5CCC(n6cc7cc(NC(=O)c8cnn9cccnc89)c(OCC8CC8)cc7n6)CC5)C4)c(F)c3C2=O)C(=O)N1 (stereo not drawn) [Example 262] | 50 to 100 | 10 to 50 | 1 to 5 | 70 to 80 | A (A represents a DC90 value <10.0 nM) | < 70 | ≥ 90 |
| CN1CC(Oc2cc3nn(C4CCN(CC5(F)CN(c6ccc7c(c6)C(=O)N(C6CCC(=O)NC6=O)C7=O)C5)CC4)cc3cc2NC(=O)c2cnn3cccnc23)C1 (stereo not drawn) [Example 263] | < 10 | 10 to 50 | ≥ 10 | ≥ 90 | A (A represents a DC90 value <10.0 nM) | < 70 | ≥ 90 |
| O=C1CCC(N2Cc3c(F)cc(N4CC(F)(CN5CCC(n6cc7cc(NC(=O)c8cnn9cccnc89)c(OCC8CC8)cc7n6)CC5)C4)cc3C2=O)C(=O)N1 (stereo not drawn) [Example 268, N-[6-(cyclopropylmethoxy)-2-[1-({1-[2-(2,6-dioxopiperidin-3-yl)-7-fluoro-3-oxo-2,3-dihydro-1H-isoindol-5-yl]-3-fluoroazetidin-3-yl}methyl)piperidin-4-yl]-2H-indazol-5-yl]pyrazolo[1,5-a]pyrimidine-3-carboxamide] | 10 to 50 | 10 to 50 | < 1 | ≥ 90 | A (A represents a DC90 value <10.0 nM) | 70 to 80 | ≥ 90 |
| O=C1CCC(N2Cc3cc(F)c(N4CC(F)(CN5CCC(n6cc7cc(NC(=O)c8cnn9cccnc89)c(OCC8CC8)cc7n6)CC5)C4)cc3C2=O)C(=O)N1 (stereo not drawn) [Example 269, N-[6-(cyclopropylmethoxy)-2-[1-({1-[2-(2,6-dioxopiperidin-3-yl)-6-fluoro-3-oxo-2,3-dihydro-1H-isoindol-5-yl]-3-fluoroazetidin-3-yl}methyl)piperidin-4-yl]-2H-indazol-5-yl]pyrazolo[1,5-a]pyrimidine-3-carboxamide] | 10 to 50 | 10 to 50 | 1 to 5 | 80 to 90 | A (A represents a DC90 value <10.0 nM) | 80 to 90 | ≥ 90 |
| CC(C)Oc1cc2c(cc1NC(=O)c1cnn3cccnc13)CN(C1CCN(CC3CCN(c4ccc(F)c(C(=O)NC5CCC(=O)NC5=O)c4)CC3)CC1)C2=O (stereo not drawn) [Example 303] | 10 to 50 | 10 to 50 | 5 to 10 | 80 to 90 | C (C represents a DC90 value ≥25.0 nM and <50 nM) | 70 to 80 | ≥ 90 |
| O=C1CCC(NC(=O)c2ccc(N3CCC(CN4CCC(N5Cc6cc(NC(=O)c7cnn8cccnc78)c(OCC(F)F)cc6C5=O)CC4)CC3)cc2F)C(=O)N1 (stereo not drawn) [Example 305] | 10 to 50 | 50 to 100 | 5 to 10 | 80 to 90 | C (C represents a DC90 value ≥25.0 nM and <50 nM) | < 70 | < 70 |
| O=C1CCC(NC(=O)c2cc(N3CC(CN4CCC(n5cc6cc(NC(=O)c7cnn8cccnc78)c(OCC7CC7)cc6n5)CC4)C3)ccc2F)C(=O)N1 (stereo not drawn) [Example 306] | ≥ 100 | ≥ 100 | ≥ 10 | 70 to 80 | D (D represents a DC90 value ≥50 nM) | 70 to 80 | ≥ 90 |
| CC(C)Oc1cc2nn(C3CCN(CC4CN(c5ccc(F)c(C(=O)NC6CCC(=O)NC6=O)c5)C4)CC3)cc2cc1NC(=O)c1cnn2cccnc12 (stereo not drawn) [Example 307] | ≥ 100 | ≥ 100 | ≥ 10 | – | D (D represents a DC90 value ≥50 nM) | – | 80 to 90 |
| CC(C)Oc1nc2c(cc1NC(=O)c1cnn3cccnc13)CN(C1CCN(CC3CCN(c4ccc(C(=O)NC5CCC(=O)NC5=O)c(F)c4)CC3)CC1)C2=O (stereo not drawn) [Example 309] | 10 to 50 | 10 to 50 | 1 to 5 | ≥ 90 | B (B represents a DC90 value ≥10.0 nM and <25.0 nM) | < 70 | 80 to 90 |
| O=C1CCC(NC(=O)c2ccc(N3CCC(CN4CCC(N5Cc6cc(NC(=O)c7cnn8cccnc78)c(N7CCC(N8CCC8)CC7)cc6C5=O)CC4)CC3)cc2F)C(=O)N1 (stereo not drawn) [Example 310] | ≥ 100 | 50 to 100 | 1 to 5 | ≥ 90 | A (A represents a DC90 value <10.0 nM) | 70 to 80 | ≥ 90 |

Now from value to compound, other results behind:

| IC50 (IL6 [1]) [nM] | IC50 (IL6 [2]) [nM] | DC50 (IRAK-4) [nM] | Dmax (IRAK-4) [%] | PBMC DC90 (IRAK-4) | SMILES | Dmax (IL6 [1]) [%] | Dmax (IL6 [2]) [%] |
| --- | --- | --- | --- | --- | --- | --- | --- |
| 50 to 100 | 50 to 100 | ≥ 10 | ≥ 90 | D (D represents a DC90 value ≥50 nM) | O=C1CCC(N2C(=O)c3ccc(N4CC(F)(CN5CCC(n6cc7cc(NC(=O)c8cnn9cc(Cl)cnc89)c(OCC8CC8)cc7n6)CC5)C4)cc3C2=O)C(=O)N1 (stereo not drawn) [Example 255] | 70 to 80 | ≥ 90 |
| 10 to 50 | 10 to 50 | < 1 | ≥ 90 | A (A represents a DC90 value <10.0 nM) | CC(C)(C1CN(c2ccc3c(c2)C(=O)N(C2CCC(=O)NC2=O)C3=O)C1)N1CCC(n2cc3cc(NC(=O)c4cnn5cccnc45)c(OCC4CC4)cc3n2)CC1 (stereo not drawn) [Example 256] | < 70 | 80 to 90 |
| 10 to 50 | 10 to 50 | 1 to 5 | ≥ 90 | A (A represents a DC90 value <10.0 nM) | O=C1CCC(N2C(=O)c3ccc(N4CCC(O)(CN5CCC(n6cc7cc(NC(=O)c8cnn9cccnc89)c(OCC8CC8)cc7n6)CC5)CC4)cc3C2=O)C(=O)N1 (stereo not drawn) [Example 257] | 70 to 80 | ≥ 90 |
| < 10 | 10 to 50 | < 1 | 80 to 90 | A (A represents a DC90 value <10.0 nM) | O=C1CCC(N2Cc3cc(N4CCC(O)(CN5CCC(n6cc7cc(NC(=O)c8cnn9cccnc89)c(OCC8CC8)cc7n6)CC5)CC4)ccc3C2=O)C(=O)N1 (stereo not drawn) [Example 258] | 70 to 80 | ≥ 90 |
